Laboratory results from patent US6444640B1, “Compositions of trail and DNA damaging drugs and uses thereof” (Ludwig Institute for Cancer Research, priority 1999, dated 2002).
Read-outs that look alike come from different tables or passages of the source.

Experiments:
[1] = system: astrocytes from p53 knockout mice; conditions: in vitro; cited from earlier work
DR5 = test: Northern blot of DR5 expression in human glioma cell lines after drug treatment; format: cell-based; conditions: for basal level expression of ~4.4Kb DR5 transcripts after contact with drug: U87MG, A1207, U178 cells, Northern blot
Description: This first set of experiments was designed to determine whether chemotherapeutic agents which are used in treating gliomas could upregulate expression of DR5 in human glioma cell lines. This was apreliminary step to determine if wild type p53, which is found in de novo glioblastomas, could be exploited.
The human glioblastoma cell lines U87MG, A1207, and U178 were used. The first two of these cell lines are homozygous for wild type p53, while U178 cells express a wild type allele, and an allele with a mutation at codon 271. Samples of cells were treated with one of cis-diamminedichloroplatinum (II) (“CDDP” hereafter), ectoposide (“VP16” hereafter), or chloroethyl)-BCNU. The U87MG and U178 cells received either 0, 1, or 4 ug/ml doses of CDDP; 0, 8, or 16 ug/ml doses of VP16, or 0, 100, or 200 μM doses of BCNU. The A1207 cells received 0, 5, or 20 ug/ml of CDDP, 0, 8 or 16 ug/ml of VP16, or 0, 100, or 200 μM doses of BCNU.
The cells were treated with the drug at an indicated dosage for 16 hours, after which they were harvested, and total RNA was extracted, following standard methods. Then, 15 ug samples were size fractionated on a 1% agarose formaldehyde gel, and transferred to a nylon membrane. These samples were then probed with a human DR5 cDNA probe, 583 base pairs long. This had beenz prepared via RT-PCR of total RNA of U87MG cells using:
The hybridization was carried out at 68° C. for 2 hours, followed by washing in 0.5×SSC and 0.1% SDS at 58° C. for 15 minutes. The membranes were then exposed to film at −80° C. with an intensifying screen. In order to confirm that RNA had in fact been loaded, 28SrRNA was stained with methylene blue.

U87MG cells [2] = test: Subcutaneous U87MG tumors in nude mice, Example 7; format: in vivo; conditions: single agent
Description: To test this, U87MG cells (2×10^6) were suspended in 0.1 ml PBS, and then injected subcutaneously into the right flank of 4-5 week old female nude mice, of BALB/C background. Tumors were permitted to become established, and then grow for 20 days, reaching an approximate innate volume of 150 mm^3. Then, either CDDP (3 mg/kg), or sterile normal saline was administered intraperitoneally on days 20,21,22,30,31, and 32. Mice also received either fusion protein FLAG-TRAIL (200 ug), or a mock control. The FLAG-TRAIL fusion protein described by Degli-Esposti, et al., J. Exp. Med 186: 1165-1170 (1997), incorporated by reference, was prepared via standard recombinant methods. Mock controls were prepared by carrying out the same protocol used to produce the FLAG-TRAIL, but without a vector which encoded the fusion protein. Cell lysate was used as the control. The FLAG-TRAIL or control was administered via intraveneous and intraperitoneal injections 16 hours and 24 hours following CDDP treatment, i.e., on days 21,22,23, 31,32 and 33. Growth of the tumors was measured at 2 day intervals, in accordance with Huang, et al., J. Biol Chem 272: […] (1997).

U87MG cells [3] = test: MTT survival assay; conditions: for cell viability, single agent: TRAIL 0.1 ug/ml, CDDP 4 ug/ml, VP16 16 ug/ml, 24 hours
Description: (§1) Experiments were then carried out to determine if combining TRAIL with the damaging agents would enhance cytotoxicity. The method employed to determine if combining TRAIL with the damaging agents would enhance cytotoxicity was the 3-(4,5-dimethylthiazol-2-yl)-2,5-diphenyl tetrazolum bromide (“MTT”) survival assay, described by Mosmann, et al., J. Immunol. […] Cells (U87MG) were plated, at 1×10^4 cells/well in 96 well microtiter plates overnight.
(§2) The cytotoxic effect of TRAIL, in combination with one of the DNA damaging agents discussed supra, i.e., CDDP, VP16, as BCNU was tested, by either adding TRAIL alone, the drug alone, or TRAIL plus the drug, in a two component combination, with DR5-Fc, referred to supra, or with Fc. The dosages were as provided supra.

[4] = system: poly (ADP-ribase) polymerase; test: Western blot for PARP cleavage (activation of effector caspases); format: cell-based, human; conditions: 24 hours after treatment
Description: The direct assessment of activation of effector caspases was examined by assaying for cleavage of poly (ADP-ribase) polymerase, or “PARP”, after treatment with combinations of a DNA damaging agent (CDDP or VP16), TRAIL, DR5-Fc or Fc, and the caspase inhibitor, Z-Asp-CH2-DCB. This was determined via Western blotting, where 20 ug of clarified protein lysate was loaded onto SDS gels 24 hours after treatment, electrophoresed, transferred to membranes, and then probed with monoclonal antibodies against PARP. Full length PARP has a molecular weight of about 116 kilodalton and, when cleaved, one fragment is 85 kilodaltons.

U87MG cells [5] = test: Apoptosis of U87MG cells (TUNEL, flow cytometry) with caspase inhibitor; format: cell-based, human
Description: In these experiments, the mechanism by which the cell death caused by combination of TRAIL and DNA damaging agents was studied further. U87MG cells were plated overnight, and then treated with either TRAIL alone (0.1 ug/ml), CDDP alone (4 ug/ml) VP16 alone (16 ug/ml) TRAIL and CDDP, at the recited doses, or TRAIL plus VP16, at the recited doses. The cells were treated for 44 hours, collected, fixed in 2% formaldehyde, and permeabilized in 0.05% Tween-20 in bovine serum albumin solution.
The cells were then incubated with TUNEL (terminal deoxynucleotidyl transferase mediated nick end labeling) solution, at 37° C. for 1 hour. Those cells which stained positively with fluorescein were analyzed via flow cytometry. The morphology of the dead cells was typical of apoptosis.
TRAIL is known to induce apoptosis through activation of effector caspases. See, e.g., Wu, et al., Nature Genet 17: 141-143 (1997); Wiley et al., Immunity 3: 673-682 (1995); Pitti, et al., J. Biol Chem 271: 12687-12690 (1996); Pan, et al., Science 277: 815-818 (1997); Sheridan, et al., Science 277: 818-821 (1997); Walczak, et al., EMBO J. 16: 5386-5397 (1997).

U87MG cells [6] = system: U87MG cells
Description: as §1, §2

Molecule: O=NN(CCCl)C(=O)NCCCl [BCNU, 1,3 bis (2-chloroethyl)-1-nitrosourea]
- sensitivity of p53 knockout astrocytes compared with wild type astrocytes [1]: more sensitive
- basal level expression of ~4.4Kb DR5 transcripts after contact with drug (DR5): lesser effect

Molecule: N.N.[Cl][Pt][Cl] [CDDP, cis-diamminedichloroplatinum (II)]
- tumor growth compared with combined drugs (U87MG cells [2]): grew significantly faster
- cell viability, single agent (U87MG cells [3]): sublethal
- PARP cleavage product (85 kilodaltons) [4]: not
- basal level expression of ~4.4Kb DR5 transcripts after contact with drug (DR5): increased significantly
- time of contact needed for induction of DR5 (DR5; glioblastoma cell lines): 16 h

Molecule: COc1cc([C@@H]2c3cc4c(cc3[C@@H](O[C@@H]3O[C@@H]5CO[C@@H](C)O[C@H]5[C@H](O)[C@H]3O)[C@H]3COC(=O)[C@H]23)OCO4)cc(OC)c1O [VP16, ectoposide]
- cell viability, single agent (U87MG cells [3]): sublethal
- PARP cleavage product (85 kilodaltons) [4]: not
- basal level expression of ~4.4Kb DR5 transcripts after contact with drug (DR5): increased significantly

Molecule: O=C(O)C[C@H](NC(=O)OCc1ccccc1)C(=O)COC(=O)c1c(Cl)cccc1Cl [Z-Asp-CH2-DCB]
- effect on synergistic cytotoxicity of TRAIL plus DNA damaging agent (U87MG cells [3]; added to TRAIL plus CDDP or VP16): at levels obtained for single drugs
- effect on PARP cleavage elicited by TRAIL and CDDP or VP16 [4]: inhibited
- apoptosis on treatment with TRAIL, one of CDDP or VP16, and the caspase inhibitor (U87MG cells [5]): did not induce apoptosis

Molecule: DR5-Fc: a soluble fusion protein that competes for TRAIL
- effect on PARP cleavage elicited by TRAIL and CDDP or VP16 [4]: inhibited
- effect on synergistic cytotoxicity of TRAIL plus DNA damaging agent (U87MG cells [6]): abolished

Molecule: extracellular domain of DR4 expressed as a fusion protein with Fc: extracellular domain of DR4 expressed as a fusion protein with Fc
- effect on synergistic cytotoxicity of TRAIL plus DNA damaging agent (U87MG cells [6]): same elimination of synergistic cytotoxicity

B1: TRAIL: tumor necrosis factor related apoptosis inducing ligand; given in vivo as fusion protein FLAG-TRAIL (protein)
chain: TSEETISTVQEKQQNISPLVRERGPQRVAAHITGTRGRSNTLSSPNSKNEKALGRKINSWESSRSGHSFLSNLHLRNGELVIHEKGFYYIYSQTYFRFQEEIKENTKNDKQMVQYIYKYTSYPDPILLMKSARNSCWSKDAEYGLYSIYQGGIFELKENDRIFVSVTNEHLIDMDHEASFFGAFLVG
- tumor growth compared with combined drugs (U87MG cells [2]): grew significantly faster
- cell viability, single agent (U87MG cells [3]): no effect on cell viability
- reduction of amount of TRAIL necessary for efficacy in combination versus alone (U87MG cells [3]; in combination with DNA damaging agent): about 100 fold
- PARP cleavage product (85 kilodaltons) [4]: not
